Measurements: the supplement of paper PMC13380429

Key:
[1] = test system: A549-ACE2 infected with SARS-CoV-2; test: morphology score (similarity to uninfected cells); higher = more like uninfected cells; conditions: 24 h
[2] = test system: A549-ACE2; test: drug-induced phospholipidosis relative to tamoxifen; higher = more phospholipidosis
[3] = test system: Calu-3; test: relative viability EC50 (midpoint between 100% and the lowest measured viability); higher = less toxic; conditions: 72 h
[4] = test system: A549-ACE2 infected with SARS-CoV-2; test: cell count relative to DMSO; higher = less toxic; conditions: 24 h
[5] = test system: A549-ACE2 infected with SARS-CoV-2; test: SARS-CoV-2 infection rate relative to DMSO; higher = more infection; conditions: 24 h
[6] = test system: Vero E6; test: drug sensitivity score (DSS) for viability; higher = more toxic; extreme values may be limits of the assay; conditions: 72 h
[7] = test system: U2OS; test: as above; conditions: 72 h
[8] = test system: HepG2; test: as above; conditions: 72 h
[9] = test system: Calu-3; test: as above; conditions: 72 h
[10] = test system: Caco-2; test: as above; conditions: 72 h
[11] = test system: Vero E6; test: cell viability relative to DMSO; higher = less toxic; conditions: 72 h
[12] = test system: U2OS; test: as above; conditions: 72 h
[13] = test system: HepG2; test: as above; conditions: 72 h
[14] = test system: Calu-3; test: as above; conditions: 72 h
[15] = test system: Caco-2; test: as above; conditions: 72 h
[16] = test system: Vero E6; test: relative viability EC50 (midpoint between 100% and the lowest measured viability); higher = less toxic; conditions: 72 h
[17] = test system: U2OS; test: as above; conditions: 72 h
[18] = test system: HepG2; test: as above; conditions: 72 h
[19] = test system: Caco-2; test: as above; conditions: 72 h

C[C@@H]1COCCN1c1cc(=O)n2c(n1)N(Cc1cncc(Cl)c1)[C@H](C(F)(F)F)CC2 [SAR405]
Conditions	SARS-CoV-2 infection rate, [5] [%]	cell count, [4] [%]	cell viability, [11] [%]	cell viability, [12] [%]	cell viability, [13] [%]	cell viability, [14] [%]	cell viability, [15] [%]	morphology score, [1]
1 nM	–	–	105	97.4	98.1	99.7	84.5	–
10 nM	–	–	108	96.8	105	97.3	91.1	–
0.1 µM	94	105	–	–	–	–	–	0.11
100 nM	–	–	104	99.2	101	109	80.6	–
0.3 µM	88	102	–	–	–	–	–	0.09
1 µM	58	114	–	–	–	–	–	0.48
1000 nM	–	–	96.9	96.3	76.9	104	59.7	–
3 µM	31	104	–	–	–	–	–	0.5
10000 nM	–	–	63.8	68.9	55.5	88.6	76.3	–

drug-induced phospholipidosis [%], [2]
Conditions	0.3 µM	0.833333 µM	3.33333 µM	6.66667 µM	10 µM	30 µM
24 h	-2.02	-6.84	10.5	23.4	28.8	39.3
48 h	1.08	-10.5	7.2	36.3	–	–
72 h	3.73	-7.79	5.27	–	–	–

Conditions	drug sensitivity score	relative viability EC50 [µM]
[3]	–	> 10
[6]	2.2	–
[7]	2	–
[8]	5.2	–
[9]	0	–
[10]	8.1	–

C=C1C(=O)O[C@@H]2C[C@@]3(C)CCC[C@H](C)C3=C[C@H]12 [alantolactone]
Conditions	SARS-CoV-2 infection rate, [5] [%]	cell count, [4] [%]	cell viability, [11] [%]	cell viability, [12] [%]	cell viability, [13] [%]	cell viability, [15] [%]	morphology score, [1]
1 nM	–	–	94.7	99.2	94.8	94.9	–
10 nM	–	–	95.8	96.4	102	99	–
100 nM	–	–	95.8	101	106	101	–
0.3 µM	104	100	–	–	–	–	0.1
1000 nM	–	–	96.8	96.4	104	99.8	–
3 µM	92	98	–	–	–	–	-0.12
10 µM	91	97	–	–	–	–	-0.07
10000 nM	–	–	101	96.6	117	89.7	–
30 µM	35	9	–	–	–	–	0.21

drug-induced phospholipidosis [%], [2]
Conditions	0.3 µM	0.833333 µM	3.33333 µM	6.66667 µM	10 µM	30 µM
24 h	0.44	-0.52	-2.33	-1.69	-1.05	3.99
48 h	0.11	-0.81	-1.92	-1	0.04	3.39
72 h	2.31	-0.225	-1.83	-1.58	0.848	3.9

Conditions	drug sensitivity score	relative viability EC50 [µM]
[6]	0	–
[7]	0	–
[8]	0	–
[10]	0	–
[16]	–	> 10
[17]	–	> 10
[18]	–	> 10
[19]	–	> 10

O=C(O)CCCCCCCC(=O)O [azelaic-acid]
Conditions	SARS-CoV-2 infection rate, [5] [%]	cell count, [4] [%]	cell viability, [12] [%]	cell viability, [13] [%]	cell viability, [15] [%]	morphology score, [1]
1 nM	–	–	101	102	105	–
10 nM	–	–	103	92.3	97	–
100 nM	–	–	99.4	115	103	–
0.3 µM	94	103	–	–	–	0.2
1000 nM	–	–	106	96.4	105	–
3 µM	100	95	–	–	–	-0.03
10 µM	98	102	–	–	–	0.06
10000 nM	–	–	97.7	99	95.6	–
30 µM	103	102	–	–	–	0.01

drug-induced phospholipidosis [%], [2]
Conditions	0.3 µM	0.833333 µM	3.33333 µM	6.66667 µM	10 µM	30 µM
24 h	-0.21	-0.53	-0.9	-0.71	-1.82	0.53
48 h	0.97	-0.84	-1.1	0.62	-0.42	2.28
72 h	3.56	0.0211	0.507	0.701	1.19	4.29

Conditions	drug sensitivity score	relative viability EC50 [µM]
[7]	0	–
[8]	0	–
[10]	0	–
[17]	–	> 10
[18]	–	> 10
[19]	–	> 10

CCCN1CCN(c2ccc(C(=O)NC3(C(=O)NCC#N)CCCCC3)cc2)CC1 [balicatib]
Conditions	SARS-CoV-2 infection rate, [5] [%]	cell count, [4] [%]	cell viability, [11] [%]	cell viability, [12] [%]	cell viability, [13] [%]	cell viability, [14] [%]	cell viability, [15] [%]	morphology score, [1]
1 nM	–	–	99.7	100	90	108	107	–
10 nM	–	–	108	99.7	103	100	101	–
100 nM	–	–	108	95	114	98.8	102	–
0.3 µM	86	107	–	–	–	–	–	0.39
1000 nM	–	–	98.1	103	104	108	95.4	–
3 µM	45	116	–	–	–	–	–	0.76
10 µM	33	119	–	–	–	–	–	0.78
10000 nM	–	–	105	95.4	101	110	106	–
30 µM	20	117	–	–	–	–	–	0.83

drug-induced phospholipidosis [%], [2]
Conditions	0.3 µM	0.833333 µM	3.33333 µM	6.66667 µM	10 µM	30 µM
24 h	1.43	-0.89	1.98	6.47	8.06	17.1
48 h	1.09	-1.16	0.49	4.83	7.84	17.9
72 h	4.12	-0.524	1.07	5.37	8.73	20.4

Conditions	drug sensitivity score	relative viability EC50 [µM]
[3]	–	> 10
[6]	0	–
[7]	0	–
[8]	0	–
[9]	0	–
[10]	0	–
[16]	–	> 10
[17]	–	> 10
[18]	–	> 10
[19]	–	> 10
